What was measured:
[1] = tested on: OVCAR-5; test: Growth inhibition of human OVCAR5 cells assessed as cell growth at 0.005 uM incubated for 48 hrs by sulforhodamine B assay relative to control; format: functional; settings: OVCAR-5, 48 h, read-out: Activity
[2] = tested on: CAKI-1; test: Growth inhibition of human Caki1 cells assessed as cell growth at 0.005 uM incubated for 48 hrs by sulforhodamine B assay relative to control; format: functional; settings: CAKI-1, 48 h, read-out: Activity
[3] = tested on: TK-10; test: Growth inhibition of human TK10 cells assessed as cell growth at 0.005 uM incubated for 48 hrs by sulforhodamine B assay relative to control; format: functional; settings: TK-10, 48 h, read-out: Activity
[4] = tested on: HOP-62; test: Growth inhibition of human HOP62 cells assessed as cell growth at 0.05 uM incubated for 48 hrs by sulforhodamine B assay relative to control; format: functional; settings: HOP-62, 48 h, read-out: Activity
[5] = tested on: SNB-19; test: Growth inhibition of human SNB19 cells assessed as cell growth at 0.05 uM incubated for 48 hrs by sulforhodamine B assay relative to control; format: functional; settings: SNB-19, 48 h, read-out: Activity
[6] = tested on: U-251; test: Growth inhibition of human U251 cells assessed as cell growth at 0.05 uM incubated for 48 hrs by sulforhodamine B assay relative to control; format: functional; settings: U-251, 48 h, read-out: Activity
[7] = tested on: SK-MEL-5; test: Growth inhibition of human SK-MEL-5 cells assessed as cell growth at 0.05 uM incubated for 48 hrs by sulforhodamine B assay relative to control; format: functional; settings: SK-MEL-5, 48 h, read-out: Activity
[8] = tested on: PC-3; test: Growth inhibition of human PC3 cells assessed as cell growth at 0.05 uM incubated for 48 hrs by sulforhodamine B assay relative to control; format: functional; settings: PC-3, 48 h, read-out: Activity
[9] = tested on: MCF7; test: Growth inhibition of human MCF7 cells assessed as cell growth at 0.05 uM incubated for 48 hrs by sulforhodamine B assay relative to control; format: functional; settings: MCF7, 48 h, read-out: Activity
[10] = tested on: BT-549; test: Growth inhibition of human BT549 cells assessed as cell growth at 0.05 uM incubated for 48 hrs by sulforhodamine B assay relative to control; format: functional; settings: BT-549, 48 h, read-out: Activity
[11] = tested on: NCI-H322M; test: Growth inhibition of human NCI-H322M cells assessed as cell growth at 0.5 uM incubated for 48 hrs by sulforhodamine B assay relative to control; format: functional; settings: read-out: Activity
[12] = tested on: NCI-H460; test: Growth inhibition of human NCI-H460 cells assessed as cell growth at 0.5 uM incubated for 48 hrs by sulforhodamine B assay relative to control; format: functional; settings: NCI-H460, 48 h, read-out: Activity
[13] = tested on: IGROV-1; test: Growth inhibition of human IGROV1 cells assessed as cell growth at 0.5 uM incubated for 48 hrs by sulforhodamine B assay relative to control; format: functional; settings: IGROV-1, 48 h, read-out: Activity
[14] = tested on: OVCAR-5; test: Growth inhibition of human OVCAR5 cells assessed as cell growth at 0.5 uM incubated for 48 hrs by sulforhodamine B assay relative to control; format: functional; settings: OVCAR-5, 48 h, read-out: Activity
[15] = tested on: MDA-MB-231; test: Growth inhibition of human MDA-MB-231 cells assessed as cell growth at 0.5 uM incubated for 48 hrs by sulforhodamine B assay relative to control; format: functional; settings: MDA-MB-231, 48 h, read-out: Activity
[16] = tested on: A549; test: Growth inhibition of human A549/ATCC cells assessed as cell growth at 5 uM incubated for 48 hrs by sulforhodamine B assay relative to control; format: functional; settings: A549, 48 h, read-out: Activity
[17] = tested on: SF-295; test: Growth inhibition of human SF295 cells assessed as cell growth at 5 uM incubated for 48 hrs by sulforhodamine B assay relative to control; format: functional; settings: SF-295, 48 h, read-out: Activity
[18] = tested on: SK-MEL-28; test: Growth inhibition of human SK-MEL-28 cells assessed as cell growth at 5 uM incubated for 48 hrs by sulforhodamine B assay relative to control; format: functional; settings: SK-MEL-28, 48 h, read-out: Activity
[19] = tested on: ACHN; test: Growth inhibition of human ACHN cells assessed as cell growth at 5 uM incubated for 48 hrs by sulforhodamine B assay relative to control; format: functional; settings: read-out: Activity
[20] = tested on: Hs-578T; test: Growth inhibition of human Hs 578T cells assessed as cell growth at 5 uM incubated for 48 hrs by sulforhodamine B assay relative to control; format: functional; settings: read-out: Activity
[21] = tested on: K562; test: Growth inhibition of human K562 cells assessed as cell growth at 50 uM incubated for 48 hrs by sulforhodamine B assay relative to control; format: functional; settings: K562, 48 h, read-out: Activity
[22] = tested on: MDA-MB-435; test: Growth inhibition of human MDA-MB-435 cells assessed as cell growth at 50 uM incubated for 48 hrs by sulforhodamine B assay relative to control; format: functional; settings: MDA-MB-435, 48 h, read-out: Activity
[23] = tested on: SK-MEL-2; test: Growth inhibition of human SK-MEL-2 cells assessed as cell growth at 50 uM incubated for 48 hrs by sulforhodamine B assay relative to control; format: functional; settings: SK-MEL-2, 48 h, read-out: Activity
[24] = tested on: UACC-257; test: Growth inhibition of human UACC257 cells assessed as cell growth at 50 uM incubated for 48 hrs by sulforhodamine B assay relative to control; format: functional; settings: UACC-257, 48 h, read-out: Activity
[25] = tested on: UACC-62; test: Growth inhibition of human UACC62 cells assessed as cell growth at 50 uM incubated for 48 hrs by sulforhodamine B assay relative to control; format: functional; settings: UACC-62, 48 h, read-out: Activity
[26] = tested on: OVCAR-8; test: Growth inhibition of human OVCAR8 cells assessed as cell growth at 50 uM incubated for 48 hrs by sulforhodamine B assay relative to control; format: functional; settings: OVCAR-8, 48 h, read-out: Activity
[27] = tested on: NCI/ADR-RES; test: Growth inhibition of human NCI/ADR-RES cells assessed as cell growth at 50 uM incubated for 48 hrs by sulforhodamine B assay relative to control; format: functional; settings: read-out: Activity
[28] = tested on: UO-31; test: Growth inhibition of human UO31 cells assessed as cell growth at 50 uM incubated for 48 hrs by sulforhodamine B assay relative to control; format: functional; settings: UO-31, 48 h, read-out: Activity
[29] = tested on: T47D; test: Growth inhibition of human T47D cells assessed as cell growth at 50 uM incubated for 48 hrs by sulforhodamine B assay relative to control; format: functional; settings: read-out: Activity
[30] = tested on: NCI-H460; test: Growth inhibition of human NCI-H460 cells assessed as cell growth at 10 uM incubated for 48 hrs by sulforhodamine B assay relative to control; format: functional; settings: NCI-H460, 48 h, read-out: Activity
[31] = target: Receptor tyrosine-protein kinase erbB-2 (Homo sapiens) (UniProt P04626); test: Inhibition of human HER2 at 10 uM using poly[Glu:Tyr] (4:1) as substrate in presence of [33P]ATP by Hotspot assay relative to control
[32] = tested on: LOX IMVI; test: Growth inhibition of human LOXIMVI cells assessed as cell growth at 0.003 uM incubated for 48 hrs by sulforhodamine B assay relative to control; format: functional; settings: read-out: Activity
[33] = tested on: MDA-MB-468; test: Growth inhibition of human MDA-MB-468 cells assessed as cell growth at 0.003 uM incubated for 48 hrs by sulforhodamine B assay relative to control; format: functional; settings: MDA-MB-468, 48 h, read-out: Activity

Receptor tyrosine-protein kinase erbB-2 (Homo sapiens), sequence (P04626 whole entry): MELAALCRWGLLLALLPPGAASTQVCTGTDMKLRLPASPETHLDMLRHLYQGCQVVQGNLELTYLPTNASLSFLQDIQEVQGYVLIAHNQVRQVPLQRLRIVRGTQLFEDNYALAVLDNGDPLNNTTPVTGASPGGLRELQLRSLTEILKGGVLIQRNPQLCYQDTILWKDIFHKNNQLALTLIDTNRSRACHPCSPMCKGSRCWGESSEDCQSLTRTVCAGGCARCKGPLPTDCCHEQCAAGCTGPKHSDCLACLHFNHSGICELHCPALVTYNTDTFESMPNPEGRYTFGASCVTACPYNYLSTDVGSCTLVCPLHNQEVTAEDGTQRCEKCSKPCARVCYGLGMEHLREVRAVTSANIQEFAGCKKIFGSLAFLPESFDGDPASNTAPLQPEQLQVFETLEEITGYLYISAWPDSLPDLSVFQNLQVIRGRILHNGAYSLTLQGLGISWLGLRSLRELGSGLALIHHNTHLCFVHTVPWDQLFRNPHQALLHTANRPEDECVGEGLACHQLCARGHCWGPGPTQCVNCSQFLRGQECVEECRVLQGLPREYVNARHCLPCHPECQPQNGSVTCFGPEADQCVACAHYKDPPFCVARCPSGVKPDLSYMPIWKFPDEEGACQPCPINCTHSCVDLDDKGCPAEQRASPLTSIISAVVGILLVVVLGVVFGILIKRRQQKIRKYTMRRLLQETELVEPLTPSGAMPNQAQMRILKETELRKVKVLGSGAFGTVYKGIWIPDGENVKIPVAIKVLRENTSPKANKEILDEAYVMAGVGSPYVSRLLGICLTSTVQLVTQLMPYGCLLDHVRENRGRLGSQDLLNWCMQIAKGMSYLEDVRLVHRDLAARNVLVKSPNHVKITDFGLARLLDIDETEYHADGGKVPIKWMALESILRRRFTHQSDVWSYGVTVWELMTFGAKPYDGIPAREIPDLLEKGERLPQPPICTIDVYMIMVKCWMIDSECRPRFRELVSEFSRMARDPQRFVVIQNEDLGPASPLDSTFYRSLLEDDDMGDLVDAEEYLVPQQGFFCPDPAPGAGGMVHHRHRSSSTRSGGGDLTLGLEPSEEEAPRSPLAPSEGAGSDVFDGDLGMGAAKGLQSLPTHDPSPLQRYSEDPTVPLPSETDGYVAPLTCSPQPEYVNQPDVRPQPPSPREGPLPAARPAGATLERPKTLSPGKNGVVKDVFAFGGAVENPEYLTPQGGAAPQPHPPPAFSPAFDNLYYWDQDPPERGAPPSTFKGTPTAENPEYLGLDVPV

COc1cc2cc(Oc3ccc(NC(=O)Nc4cccc(C(F)(F)F)c4)cc3)c(C)nc2cc1OC
growth at 0.005 µM [1]: 103%
growth at 0.005 µM [2]: 98%
growth at 0.005 µM [3]: 92%
growth at 0.05 µM [4]: 95%
growth at 0.05 µM [5]: 91%
growth at 0.05 µM [6]: 99%
growth at 0.05 µM [7]: 92%
growth at 0.05 µM [8]: 99%
growth at 0.05 µM [9]: 91%
growth at 0.05 µM [10]: 84%
growth at 0.5 µM [11]: 107%
growth at 0.5 µM [12]: 96%
growth at 0.5 µM [13]: 113%
growth at 0.5 µM [14]: 119%
growth at 0.5 µM [15]: 81%
growth at 5 µM [16]: 9%
growth at 5 µM [17]: -14%
growth at 5 µM [18]: 21%
growth at 5 µM [19]: 8%
growth at 5 µM [20]: -8%
growth at 50 µM [21]: -16%
growth at 50 µM [22]: -29%
growth at 50 µM [23]: -87%
growth at 50 µM [24]: -75%
growth at 50 µM [25]: -44%
growth at 50 µM [26]: -90%
growth at 50 µM [27]: -56%
growth at 50 µM [28]: -24%
growth at 50 µM [29]: -49%

COc1cc2cc(Oc3ccc(NC(=O)Nc4cc(C(F)(F)F)cc(C(F)(F)F)c4)cc3)c(C)nc2cc1OC
growth at 10 µM [30]: -64%

COc1cc2cc(Oc3ccc(NC(=O)Nc4ccc(Cl)c(C(F)(F)F)c4)cc3)c(C)nc2cc1OC
inhibition [31]: -7.21%
growth at 0.003 µM [32]: 100%

Cc1nc2cc(O)c(O)cc2cc1Oc1ccc(NC(=O)Nc2ccc(Cl)c(Cl)c2)cc1
growth at 0.003 µM [33]: 100%

From ChEMBL document CHEMBL3994622, “Design and synthesis of new RAF kinase-inhibiting antiproliferative quinoline derivatives. Part 2: Diarylurea derivatives” (Eur J Med Chem, 2017)
